Data reported in patent US8450522B2, “Conformationally constrained carboxylic acid derivatives useful for treating metabolic disorders” (Amgen Inc., priority 2008, dated 2013).

How the values were obtained:
[1] = target: T1, GPR40 (Homo sapiens, UniProt O14842); assay: Inositol phosphate accumulation assay (A9 cell line stably transfected with GPR40); type: cell-based; set-up: expressed in transfected cells; conditions: human GPR40, A9_GPR40 cells, 1 hour at 37° C.; read-out: IP3 EC50 (inositol phosphate assay data)
Method: An A9 cell line stably transfected with GPR40 (A9_GPR40) was used in IP accumulation assays. A9_GPR40 cells were plated in 96-well plates containing 20,000 cells/well in DMEM containing 10% FBS. After the cells attached to the well surface, the media was replaced with inositol free DMEM containing 10% dialyzed FBS and 1 μCi, mL ^3H-inositol and incubated for 16 hours. Compounds were diluted in HBSS/10 mM LiCl containing a desired amount of HSA and added directly to cells. Following 1 hour incubation at 37° C., the media was replaced with 100 μl of 20 mM formic acid to quench the reaction. 50 μL of the extract was then added to 100 μL of SPA beads, incubated overnight, and measured on a TopCount the following day.

[2] = target: T1, GPR40; assay: Cell-based aequorin assay (CHO cells stably transfected with GPR40 and aequorin); set-up: expressed in transfected cells; conditions: activation of human GPR40, CHO cells, 0.01% HSA
Method: Briefly, the Aequorin assays were performed on doubly stable CHO cells expressing GPR40 and Aequorin DNA. […] The luminescence was recorded over a period of 20 seconds with a Microlumat luminometer (Berthold).
Cell-based aequorin assays were employed to characterize the modulatory activity of compounds on the GPR40 signaling pathway. In an exemplary assay, CHO cells were stably transfected with both GPR40 and Aequorin (Euroscreen). Cells were detached from the tissue culture dish with 2 mL of trypsin (0.25% (w/v)). Trypsinization was halted with 28 mL of Hanks Buffered Salt Solution containing 20 mM Hepes (H/HBSS) and 0.01% fatty acid-free human serum albumin (HSA). Coelantrazine is added to 1 ug/mL, and the cells were incubated for 2 hours at room temperature. Compounds were dissolved in DMSO for preparation of 10 mM stock solutions. Compounds were diluted in H/HBSS containing 0.01% HSA. Serial dilutions of the test compounds were prepared to determine dose response.
Aequorin luminescence measurements were made using an EG&G Berthold 96-well luminometer, and the response was measured over a 20 second interval after cells and compounds were mixed. The maximum relative light units was plotted to determine dose response. The EC50 (effective concentration to reach 50% maximal response) was determined from the dose response plot.

T1 sequence (O14842 whole entry): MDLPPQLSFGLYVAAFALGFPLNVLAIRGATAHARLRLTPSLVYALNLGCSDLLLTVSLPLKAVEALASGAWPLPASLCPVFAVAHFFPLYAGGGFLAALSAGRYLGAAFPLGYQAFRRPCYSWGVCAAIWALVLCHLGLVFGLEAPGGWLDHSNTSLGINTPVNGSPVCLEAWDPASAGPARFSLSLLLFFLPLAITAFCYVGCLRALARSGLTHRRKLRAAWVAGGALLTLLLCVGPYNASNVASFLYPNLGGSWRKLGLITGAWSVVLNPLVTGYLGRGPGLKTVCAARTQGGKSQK

COc1ccc(F)c(-c2ccc(COc3ccc4c(c3)[C@@H](CC(=O)O)CCC4)cc2C(C)(C)C)c1 (single isomer, unassigned) [Example 6, (R)-2-(7-(3-t-Butyl-4-(2-fluoro-5-methoxyphenyl)benzyloxy)1,2,3,4-tetrahydronaphthalen-1-yl)acetic acid or (S)-2-(7-(3-t-butyl-4-(2-fluoro-5-methoxyphenyl)benzyloxy)1,2,3,4-tetrahydronaphthalen-1-yl)acetic acid]
EC50 [1]: 100 to 1000 nM
EC50 [2]: 100 to 1000 nM

COc1ccc(F)c(-c2ccc(COc3ccc4c(c3)[C@@H](C(C)C(=O)O)CC4)cc2C(C)(C)C)c1 (single isomer, unassigned) [Example 7, (S)-2-(6-(3-t-Butyl-4-(2-fluoro-5-methoxyphenyl)benzyloxy)-2,3-dihydro-1H-inden-1-yl)propanoic acid or (R)-2-(6-(3-t-butyl-4-(2-fluoro-5-methoxyphenyl)benzyloxy)-2,3-dihydro-1H-inden-1-yl)propanoic acid]
EC50 [1]: 100 to 1000 nM
EC50 [2]: 100 to 1000 nM

CCCCOc1cc(COc2ccc3c(c2)[C@@H](CC(=O)O)CC3)ccc1-c1cc(OC)ccc1F (single isomer, unassigned) [Example 17, ((1R)-6-(((2-(butyloxy)-2′-fluoro-5′-(methyloxy)-1,1′-biphenyl-4-yl)methyl)oxy)-2,3-dihydro-1H-inden-1-yl)acetic acid or ((1S)-6-(((2-(butyloxy)-2′-fluoro-5′-(methyloxy)-1,1′-biphenyl-4-yl)methyl)oxy)-2,3-dihydro-1H-inden-1-yl)acetic acid]
EC50 [1]: 1000 to 10000 nM
EC50 [2]: 100 to 1000 nM

COc1ccc(F)c(-c2ccc(COc3ccc4c(c3)[C@](C)(CC(=O)O)CC4)cc2[C@H]2CCCC2(C)C)c1 (single isomer, unassigned) [Example 18, {(S)-6-[2-((S)-2,2-Dimethyl-cyclopentyl)-2′-fluoro-5′-methoxy-biphenyl-4-ylmethoxy]-1-methyl-indan-1-yl}-acetic acid or diastereomer thereof]
EC50 [1]: 10 to 100 nM
EC50 [2]: 100 to 1000 nM

COc1ccc(F)c(-c2ccc(COc3ccc4c(c3)[C@@](C)(CC(=O)O)CC4)cc2[C@@H]2CCCC2(C)C)c1 (single isomer, unassigned) [Example 19, {(R)-6-[2-((S)-2,2-Dimethyl-cyclopentyl)-2′-fluoro-5′-methoxy-biphenyl-4-ylmethoxy]-1-methyl-indan-1-yl}-acetic acid or diastereomer thereof]
EC50 [1]: < 10 nM
EC50 [2]: 100 to 1000 nM

COc1cc(-c2ccc(COc3ccc4c(c3)[C@@](C)(CC(=O)O)CC4)cc2[C@@H]2CCCC2(C)C)c(F)cn1 (single isomer, unassigned) [Example 20, {(R)-6-[3-((S)-2,2-Dimethyl-cyclopentyl)-4-(5-fluoro-2-methoxy-pyridin-4-yl)-benzyloxy]-1-methyl-indan-1-yl}-acetic acid or diastereomer thereof]
EC50 [1]: < 10 nM
EC50 [2]: 100 to 1000 nM

COc1ccc(F)c(-c2ccc(COc3ccc4c(c3)[C@@H](C(C)(C)C(=O)O)CC4)cc2[C@H]2CCCC2(C)C)c1 (single isomer, unassigned) [Example 21]
EC50 [1]: 10 to 100 nM
EC50 [2]: 100 to 1000 nM

COc1ccc(F)c(-c2ccc(COc3ccc4c(c3)[C@@H](CC(=O)O)CC4)cc2[C@H]2CCCC2(C)C)c1 (single isomer, unassigned) [Example 22]
EC50 [1]: 10 to 100 nM
EC50 [2]: 100 to 1000 nM

COc1cc(-c2ccc(COc3ccc4c(c3)[C@@H](CC(=O)O)CC4)cc2[C@H]2CCCC2(C)C)c(F)cn1 (single isomer, unassigned) [Example 23]
EC50 [1]: 10 to 100 nM
EC50 [2]: 100 to 1000 nM

COc1ccc(F)c(-c2ccc(COc3ccc4c(c3)[C@@H](CC(=O)O)CC4)cc2[C@@H](OC)C(C)(C)C)c1 (single isomer, unassigned) [Example 24]
EC50 [1]: 10 to 100 nM
EC50 [2]: 100 to 1000 nM

COc1ccc(F)c(-c2ccc(COc3ccc4c(c3)C[C@H]4CC(=O)O)cc2C(C)(C)C)c1 (single isomer, unassigned) [Example 30, ((7S)-3-((2′-Fluoro-5′-methoxy-2-(2-methyl-2-propanyl)-4-biphenylyl)methoxy)bicycle[4.2.0]octa-1,3,5-trien-7-yl)acetic acid or ((7R)-3-((2′-fluoro-5′-methoxy-2-(2-methyl-2-propanyl)-4-biphenylyl)methoxy)bicycle[4.2.0]octa-1,3,5-trien-7-yl)acetic acid]
EC50 [2]: 1000 to 10000 nM

COc1ccc(F)c(-c2ccc(COc3ccc4c(c3)CC[C@@H]4CC(=O)O)cc2C(C)(C)C)c1 (single isomer, unassigned) [Example 31, ((1S)-5-((2′-Fluoro-5′-methoxy-2-(2-methyl-2-propanyl)-4-biphenylyl)methoxy)-2,3-dihydro-1H-inden-1-yl)acetic acid or ((1R)-5-((2′-fluoro-5′-methoxy-2-(2-methyl-2-propanyl)-4-biphenylyl)methoxy)-2,3-dihydro-1H-inden-1-yl)acetic acid]
EC50 [2]: 1000 to 10000 nM

COc1ccc(F)c(-c2ccc(COc3ccc4c(c3)CC[C@H]4CC(=O)O)cc2C(C)(C)C)c1 (single isomer, unassigned) [Example 32, ((1S)-5-((2′-Fluoro-5′-methoxy-2-(2-methyl-2-propanyl)-4-biphenylyl)methoxy)-2,3-dihydro-1H-inden-1-yl)acetic acid or ((1R)-5-((2′-fluoro-5′-methoxy-2-(2-methyl-2-propanyl)-4-biphenylyl)methoxy)-2,3-dihydro-1H-inden-1-yl)acetic acid]
EC50 [2]: 1000 to 10000 nM

COc1ccc(F)c(-c2cc(F)c(COc3ccc4c(c3)[C@@](C)(CC(=O)O)CC4)cc2[C@H]2CCCC2(C)C)c1 (single isomer, unassigned) [Example 33, ((1R)-6-((2-((1S)-2,2-Dimethylcyclopentyl)-2′,5-difluoro-5′-methoxy-4-biphenylyl)methoxy)-1-methyl-2,3-dihydro-1H-inden-1-yl)acetic acid or ((1R)-6-((2-((1R)-2,2-dimethylcyclopentyl)-2′,5-difluoro-5′-methoxy-4-biphenylyl)methoxy)-1-methyl-2,3-dihydro-1H-inden-1-yl)acetic acid]
EC50 [1]: < 10 nM
EC50 [2]: 10 to 100 nM

COc1cc(-c2cc(F)c(COc3ccc4c(c3)[C@@](C)(CC(=O)O)CC4)cc2[C@H]2CCCC2(C)C)c(F)cn1 (single isomer, unassigned) [Example 34, ((1R)-6-((5-((1S)-2,2-Dimethylcyclopentyl)-2-fluoro-4-(5-fluoro-2-methoxy-4-pyridinyl)benzyl)oxy)-1-methyl-2,3-dihydro-1H-inden-1-yl)acetic acid or ((1R)-6-((5-((1R)-2,2-dimethylcyclopentyl)-2-fluoro-4-(5-fluoro-2-methoxy-4-pyridinyl)benzyl)oxy)-1-methyl-2,3-dihydro-1H-inden-1-yl)acetic acid]
EC50 [1]: < 10 nM
EC50 [2]: 100 to 1000 nM

COc1ccc(F)c(-c2c(F)cc(COc3ccc4c(c3)[C@@](C)(CC(=O)O)CC4)cc2[C@H]2CCCC2(C)C)c1 (single isomer, unassigned) [Example 35, ((1R)-6-((2-((1S)-2,2-Dimethylcyclopentyl)-2′,6-difluoro-5′-methoxy-4-biphenylyl)methoxy)-1-methyl-2,3-dihydro-1H-inden-1-yl)acetic acid or ((1R)-6-((2-((1R)-2,2-dimethylcyclopentyl)-2′,6-difluoro-5′-methoxy-4-biphenylyl)methoxy)-1-methyl-2,3-dihydro-1H-inden-1-yl)acetic acid]
EC50 [1]: < 10 nM
EC50 [2]: 100 to 1000 nM

COc1cc(-c2ccc(COc3ccc4c(c3)[C@H](CC(=O)O)CCC4)cc2[C@H]2CCCC2(C)C)c(F)cn1 (single isomer, unassigned) [Example 47]
EC50 [2]: 1000 to 10000 nM

COc1cc(-c2ccc(COc3ccc4c(c3)[C@](C)(CC(=O)O)CCC4)cc2[C@H]2CCCC2(C)C)c(F)cn1 (single isomer, unassigned) [Example 49]
EC50 [2]: 100 to 1000 nM

COc1ccc(F)c(-c2ccc(COc3ccc4c(c3)[C@H]([C@@H](C)C(=O)O)CC4)cc2C(C)(C)C)c1 [Example 13]
EC50 [2]: 100 to 1000 nM

COc1cc(-c2ccc(COc3ccc4c(c3F)C(C)(CC(=O)O)CC4)cc2C(OC)C(C)(C)C)c(F)cn1 [Example 41, {(S)-7-Fluoro-6-[4-(5-fluoro-2-methoxy-pyridin-4-yl)-3-((S)-1-methoxy-2,2-dimethyl-propyl)-benzyloxy]-1-methyl-indan-1-yl}-acetic acid or stereoisomer thereof]
EC50 [2]: 1000 to 10000 nM
